Data reported in patent publication US10722484B2, “Methods of cancer treatment” (K-Gen, Inc., priority 2016, dated 2020).
pEC50: −log10 of the molar value. One block for each molecule: values may come before it.

Assays:
[1] = tested on: Namalwa (Burkitt's lymphoma); test: Combination viability/proliferation assays; conditions: K101A (0.1 μM) or K102 (0.001 μM)
Protocol: Briefly, cells at density of 1,000-10,000 cells/well in 96-well plates or 200-1600 cells/well in 384-well plates were seeded and incubated at 37° C. for 24 hours before addition of compounds. A series of 9 different concentrations of compound stocks (500×) were prepared by 3-fold serial dilutions in DMSO. […] After 96 hours of incubation, 35 μL or 50 μL of CellTiter Glo reagent (Promega) was added to each well and luminescence was measured after 10 minutes using EnVision (PerkinElmer). Luminescence from cells treated with DMSO alone was set as Max and % of inhibition was calculated as follows: Inhibition %=(Max-Sample value)/Max*100. Data were analyzed using XLfit software (ID Business Solutions Ltd.) or GraphPad software and IC50, relative IC50, and % of top inhibition were calculated.
Various drugs or compounds (Table 10) were screened and assayed in 384-well plates as 9-point 3-fold dilution series alone and in combination with 2-3 doses of the specified PKC activator compounds (e.g., K101A, K101E, and K102). The top concentration for the tested PKC activator compound was set at roughly the IC50 when the same testing compound was used as a single agent assayed in the same cell line. The next dose was either 3-fold or 10-fold dilution from the top concentration. […]

[2] = tested on: A549 lung cancer cell line; test: Combination viability/proliferation assays (384-well IC50 ratio, 96-well MacSynergy II); assay type: cell-based; conditions: for Combination in A549: K101A (synergism/antagonism): agent assayed in combination with K101A; for Combination in A549: K101A (synergism/antagonism) / Combination in A549: K102 (synergism/antagonism): * 2-3 concentrations, # full concentration ranges; for Combination in A549: K102 (synergism/antagonism): agent assayed in combination with K102
Protocol: (§1) A 96-well MacSynergy II format for combination test was also used. […] The analysis was done with the SQRT(Data) scale and the four parameter Hill curve was fitted using XLfit5.1 (the MacSynergy II Excel Spreadsheet) for the inhibition data. Synergy (positive number) or Antagonism (negative number) volumes were calculated. […] Three-dimensional MacSynergy II graphs were generated where positive values indicated synergism and negative values indicated antagonism.

MiaPaCa-2 = test: Combination viability/proliferation assays; assay type: cell-based; conditions: K101A (0.166 and 1 μM) or K102 (0.0017 and 0.005 μM)
Protocol: as §1

Panc2.13 = test: Combination viability/proliferation assays; assay type: cell-based; conditions: Panc2.13; K101A at 1 μM or at 0.67 μM
Protocol: as §1

AsPC-1 = test: Proliferation assay (CellTiter Glo); assay type: cell-based
Protocol: (§2) The dose range for most compounds was 4.6 nM-30 μM. The dose ranges for some compounds were adjusted downward to 0.46 nM-3 μM or 0.08 nM-0.5 μM or 0.03 nM-0.2 μM. […] The results are shown in Tables 3-6 for pancreatic cancer, lung cancer, colon/gastric cancer, and leukemia.

Pan2.03 = test: Proliferation assay (CellTiter Glo); assay type: cell-based
Protocol: as §2

Pan2.13 = test: Proliferation assay (CellTiter Glo); assay type: cell-based
Protocol: as §2

CCRF-CEM = test: Proliferation assay (CellTiter Glo); assay type: cell-based; conditions: CCRF-CEM
Protocol: as §2

H1915 = test: Proliferation assay (CellTiter Glo); assay type: cell-based; conditions: H1915 (RAS WT); 96 hours
Protocol: as §2
(§3) Other cancer cell lines having wild-type K-RAS status and K-RAS mutation at G12 were also screened using the PKC activator compounds. […] K104 was tested in a range of 0.03 nM-0.2 μM. […] The dose ranges were adjusted downward to 0.46 nM-3 μM for K102 and 0.08 nM-0.5 μM for K103 for some cell lines. The results of the screening of cancer cells lines with wild-type K-RAS status and K-RAS mutations at the G12 positions are presented in Table 7.

HT29 = test: Proliferation assay (CellTiter Glo); assay type: cell-based; conditions: HT29 (RAS WT); 96 hours
Protocol: as §2, §3

H838 = test: Proliferation assay (CellTiter Glo); assay type: cell-based; conditions: H838 (RAS WT); 96 hours
Protocol: as §2, §3

Colo205 = test: Proliferation assay (CellTiter Glo); assay type: cell-based; conditions: Colo205 (RAS WT); 96 hours
Protocol: as §2, §3

BxPC-3 = test: Proliferation assay (CellTiter Glo); assay type: cell-based; conditions: BxPC-3 (RAS WT); 96 hours
Protocol: as §2, §3

[3] = tested on: pancreatic, lung, colon and leukemia cancer cell lines; test: Proliferation assay, summary over the panel of cancer cell lines; assay type: cell-based
Protocol: PKC activator compounds were tested in a panel of K-RAS mutant pancreatic, lung, and colon cancer cell lines, as well as a number of leukemia cell lines having either mutant K-RAS or N-RAS.
as §2

Ratio ([…] DMSO IC50/combination IC50) ([2]; A549, in combination with 0.0002 μM K102, NC: no change): 0.81
Ratio ([…] DMSO IC50/combination IC50) ([2]; A549, in combination with 0.002 μM K102, NC: no change): 1.76
Ratio ([…] DMSO IC50/combination IC50) ([2]; A549, in combination with 0.005 μM K101A, NC: no change): 1.04
Ratio ([…] DMSO IC50/combination IC50) ([2]; A549, in combination with 0.02 μM K102, NC: no change): 3.55
Ratio ([…] DMSO IC50/combination IC50) ([2]; A549, in combination with 0.05 μM K101A, NC: no change): 1.89
Ratio ([…] DMSO IC50/combination IC50) ([2]; A549, in combination with 0.5 μM K101A, ratio >2 synergistic, <0.5 antagonistic, NC: no change): 5.05
Compound: CC[C@H](Nc1ncnc2[nH]cnc12)c1nc2cccc(F)c2c(=O)n1-c1ccccc1 [Idelalisib]
effect in combination with K101A or K102 [1]: synergistic anti-proliferative effect
increase of inhibition ([1]; roughly 0.03-3 μM idelalisib/CAL-101): at least 20%
effect in combination with the PKC activator compounds in inhibiting the growth of A549 cells ([2]; PKC activator compounds (K101A, K101E, K102)): strong synergy
Combination in A549: K101A (synergism/antagonism) ([2]; A549): Synergism
Combination in A549: K101E (synergism/antagonism) ([2]; agent assayed in combination with K101E, A549): Synergism
Combination in A549: K102 (synergism/antagonism) ([2]; A549): Synergism

Ratio ([…] DMSO IC50/combination IC50) ([2]; A549, in combination with 0.013 μM K102): >2
Ratio ([…] DMSO IC50/combination IC50) ([2]; A549, in combination with 0.04 μM K102): >2
Ratio ([…] DMSO IC50/combination IC50) ([2]; A549, in combination with 0.33 uM K101A): 2.55
Ratio ([…] DMSO IC50/combination IC50) ([2]; A549, in combination with 1 uM K101A): 4.23
Compound: O=c1nc(-c2ccc(C(F)(F)F)cc2)[nH]c2c1CSCC2 [XAV-939, 2-[4-(trifluoromethyl)phenyl]-1,5,7,8-tetrahydrothiopyrano[4,3-d]pyrimidin-4-one]
effect in combination with low doses of K101A or K102 (MiaPaCa-2): additive effects
effect in combination with K101A (Panc2.13): strong synergy
effect in combination with K101A or K102 in inhibiting the growth of A549 cells ([2]; K101A or K102): strong synergistic effect
Combination in A549: K101A (synergism/antagonism) ([2]; A549): Synergism
Combination in A549: K102 (synergism/antagonism) ([2]; A549): Synergism

Compound: CCC/C=C/C=C/C(=O)O[C@H]1/C(=C/C(=O)OC)C[C@H]2C[C@H]([C@@H](C)O)OC(=O)C[C@H](O)C[C@@H]3C[C@H](OC(C)=O)C(C)(C)[C@](O)(C[C@@H]4C/C(=C/C(=O)OC)C[C@H](/C=C/C(C)(C)[C@]1(O)O2)O4)O3 [Compound K104, Bryostatin 1]
Top Inhibition % (AsPC-1; AsPC-1, % of top inhibition, 96 hours): 4.2%
pEC50 (AsPC-1; Homo sapiens, ASPC1, 96 h, read-out: Ab EC50): < 6.70
pEC50 (Pan2.03; 96 h, read-out: Ab EC50): < 6.70
Top Inhibition % (Pan2.03; Pan2.03, % of top inhibition, 96 hours): 0.0%
pEC50 (Pan2.13; 96 h, read-out: Ab EC50): < 6.70
Top Inhibition % (Pan2.13; Pan2.13, % of top inhibition, 96 hours): 32.2%
Top Inhibition % (CCRF-CEM; % of top inhibition, 96 hours): 6.0%
pEC50 (CCRF-CEM; Homo sapiens, 96 h, read-out: Ab EC50): < 6.70
Top Inhibition % (H1915): 25.1%
Top Inhibition % (HT29): 4.3%
Top Inhibition % (H838): 20.0%
Top Inhibition % (Colo205): 49.4%
Top Inhibition % (BxPC-3): 3.99%
activity in the proliferation assay / cancer cell lines [3]: much lower activity
potency in proliferation inhibition relative to prostratin ([3]; comparison with prostratin): less potent
